These results are taken from patent US20240335395A1, “COMPOSITIONS AND METHODS FOR PREVENTING AND/OR TREATING DISEASE ASSOCIATED WITH IL-23 EXPRESSION” (ALLSPIM, priority 2021, published 2024).

Each structure is given as a SMILES string.

The test system of experiment [1] is IL-17/IL-23 and TNF signature cytokines and chemokines. Description: Release of IL-17/IL-23 and TNF signature cytokines and chemokines into supernatant of LPS-stimulated THP-1 cells (ELISA). Conditions: 24 h. In kind it is cell-based, human. On the procedure: (§1) Sample Collection and Preparation. THP-1 cells, a human leukemia monocyte-derived cell line, have been widely used as a model to study the modulation of the immune response and the function of monocytes and monocyte-derived macrophages. Here, lipopolysaccharide (LPS)-stimulated THP-1 cells were used as a model to study the cytokine storm in vitro (Chanput et al., 2014). THP-1 cells (purchased from American Type Culture Collection, Rockville, MD) were grown in RPMI 1640 culture medium (Gibco) supplemented with 10% fetal bovine serum (FBS) (Gibco, UK), 0.05 mM 2-mercaptoethanol, and 1% penicillin/streptomycin (Invitrogen) at 37° C. in 5% CO2 in a humidified incubator. Cultured cells were plated into culture plates in appropriate volumes with a cell density of 5×10^5 cells/ml. 2,4-D was purchased from Wuhan ChemFaces Biochemical Co., Ltd (Hubei, China) and tested for cytotoxicity in THP-1 cells overnight using a commercial MTT Cell Proliferation and Cytotoxicity Assay Kit (Beyotime, Shanghai, China). […]
ELISA. […] Culture supernatants were measured according to the manufacturer's instructions. A Varioskan LUX microplate reader (Thermo Fisher, USA) was used for the assay and 4-parameter logistic regression was used for data analysis. […] Data are expressed as mean±SD. […]

Experiment [2] deals with MSU-induced knee joint edema. Description: MSU-induced knee joint edema in mice. It is filed as in vivo, mouse. Conditions: 20 h. On the procedure: (§2) 2,4-D, isolated and purified from Chloranthus spicatus (purity≥98%), was purchased from BOC Science (Shirley, NY). Colchicine (CLC) (purity≥96%) and dexamethasone (DEX) (purity≥98%) were purchased from Sigma. Mice (six per group) were treated with 2,4-D (100 mg/kg or 20 mg/kg, i.p.), CLC (1 mg/kg or 0.2 mg/kg, i.p.), DEX (0.5 mg/kg or 0.1 mg/kg, i.p.), or vehicle (20% polyoxyethylenesorbitan monooleate (Tween 80) plus PBS) 30 min before intra-articular stimulus with MSU (100 μg/10 μL, i.a.). Six mice with intra-articular injection with PBS alone served as a negative control.
Preparation of monosodium urate crystal (MSU). MSU crystals were prepared as described previously (Ruiz-Miyazawa et al., 2017). Briefly, 800 mg of monosodium urate was dissolved in 155 ml of boiling milli-Q water containing 2N NaOH. After pH adjustment to 8.9, the solution was cooled gradually by stirring at room temperature and crystallized overnight at 4° C. Crystals were collected, and centrifuged at 3,000×g for 2 min at 4° C. The crystals were evaporated and sterilized by heating at 180° C. for 2 h and stored in a sterile environment until use. The load of endotoxin present in the MSU crystals was determined using a ToxinSensor^TM Single Test Kit (GenScript).
(§3) Induction of MSU-Induced Knee Joint Inflammation. Male ICR (CD-1) mice (35-45 g, 10-12 weeks) were purchased from VitalRiver Inc (Beijing, China) and were kept in an animal care facility under controlled temperature of 21±1° C., humidity, and on a light/dark cycle, with ad libitum access to water and standard laboratory chow diet. Animal care and handling procedures were approved by the Animal Ethics Committee of GZUCM (Guangzhou University of Chinese Medicine). All efforts were made to minimize animal suffering and to reduce the number of animals used. Joint inflammation was induced by the intra-articular (i.a.) administration of MSU (200 μg/20 μl) into the right and left knee joints of mice under inhaled 3% isoflurane anesthesia. Control animals received an injection (i.a.) of sterile PBS (20 μL).
Evaluation of Knee Joint Edema. Knee joint edema was determined with a caliper (Mitutoyo) before (zero time), and after the intra-articular injection with MSU at the times indicated. Knee joint edema was determined for each mouse by the difference between the time points indicated on figures and the zero time (Ruiz-Miyazawa et al, 2017). The edema value is represented as Amm/joint.
Statistical Analysis. Data were analyzed using GraphPad Prism statistical software (GraphPad Software, Inc., United States-500.288, version 5.0). Results are presented as means±SEM or SD of measurements made on 6 mice per group, with statistical significance determined by two-way ANOVA, comparing each group to the control (“Model”) group. For in vitro experiments, microassays were performed in quadruplicate. p<0.05 was considered significant (*p<0.05, **p<0.01, ***p<0.001).

Experiment [3] relates to MSU-induced leukocyte recruitment. Description: MSU-induced leukocyte recruitment to the synovial cavity of knee joint. The settings on record: 20 h; 2,4-D 100 mg/kg, CLC 1 mg/kg, DEX 0.5 mg/kg. In kind it is in vivo, mouse. On the procedure:
as §2, §3
Histopathological Analysis. Knee joint was collected 20 h after MSU injection, fixed with 10% paraformaldehyde in PBS, and then decalcified for 10 days with EDTA and embedded in paraffin for histological analysis. […] Results are expressed as leukocytes infiltrate (cell/field) counted at the inflammatory foci within synovial cavity as indicative of synovitis. […]
Statistical Analysis. Data were analyzed using GraphPad Prism statistical software (GraphPad Software, Inc., United States-500.288, version 5.0). Results are presented as means±SEM or SD of measurements made on 6 mice per group, with statistical significance determined by two-way ANOVA, comparing each group to the control (“Model”) group. […]

The subject of a further experiment is IL-1ß. Description: MSU-induced IL-1ß in knee joint tissue (multiplex microassay). In kind it is in vivo, mouse. The settings on record: 2,4-D 100 mg/kg, CLC 1 mg/kg, DEX 0.5 mg/kg. As for the experimental part:
(§4) Mice (six per group) were treated with 2,4-D (100 mg/kg or 20 mg/kg, i.p.), CLC (1 mg/kg or 0.2 mg/kg, i.p.), DEX (0.5 mg/kg or 0.1 mg/kg, i.p.), or vehicle (20% polyoxyethylenesorbitan monooleate (Tween 80) plus PBS) 30 min before intra-articular stimulus with MSU (100 μg/10 μL, i.a.). Six mice with intra-articular injection with PBS alone served as a negative control.
as §3
(§5) Cytokine Measurement. Mice were anesthetized and sacrificed. Knee joints were collected and frozen in liquid nitrogen. Samples were then homogenized in 500 μl of buffer containing protease inhibitors, centrifuged (3600 rpm, 4° C., 15 min) and supernatants were used to determine Th1/Th2/Th17 cytokine levels using a multiplex microassay (Qantibody® mouse TH17 Array 1 kit, Cat. No.: QAM-TH17-1; RayBiotech, Norcross, GA). Results were expressed as picograms (pg) of cytokine/mg of tissue.
(§6) Statistical Analysis. […] For in vitro experiments, microassays were performed in quadruplicate. p<0.05 was considered significant (*p<0.05, **p<0.01, ***p<0.001).

In another experiment the test system is IL-6. Description: MSU-induced IL-6 in knee joint tissue (multiplex microassay). It is filed as in vivo, mouse. Conditions: 2,4-D 100 mg/kg, CLC 1 mg/kg, DEX 0.5 mg/kg. On the procedure: as §4, §3, §5, §6
For the next experiment, the system named is IL-10. Description: MSU-induced IL-10 in knee joint tissue (multiplex microassay). It is filed as in vivo, mouse. Conditions: 2,4-D 100 mg/kg, DEX 0.5 mg/kg. On the procedure: as §4, §3, §5, §6
The subject of a further experiment is TNF-alpha. Description: MSU-induced TNF-alpha in knee joint tissue (multiplex microassay). In kind it is in vivo, mouse. Conditions: 2,4-D 100 mg/kg, CLC 1 mg/kg, DEX 0.5 mg/kg. As for the experimental part:
as §4, §3, §5, §6

For experiment [4], the system named is IL-17/IL-23 and TNF signaling pathway-associated cytokine genes and chemokine genes. Description: Transcription of IL-17/IL-23 and TNF signature genes in LPS-stimulated THP-1 cells (qPCR). In kind it is cell-based, human. The settings on record: 2 h; RPM 5-20 μM. As for the experimental part: as §1
Real-Time Quantitative PCR. Real-time quantitative PCR was performed in triplicate using the TB Green qPCR master mix (Takara Biomedical Technology Co., Ltd, Dalian, China) on an ABI 7500 Real-Time PCR System (Thermo, USA). […] The ΔΔCT method was used to quantify relative mRNA levels as described above in Example 1 (Applied Biosystems). Data are expressed as mean±SD. […]
(In general: In qPCR the cycle at which signal appears reflects the starting amount.)

For the molecule `C[C@@H]1C[C@H]2[C@@H]3CCC4=CC(=O)C=C[C@]4(C)[C@@]3(F)[C@@H](O)C[C@]2(C)[C@@]1(O)C(=O)CO` [DEX, dexamethasone], the “reduction of release of IL-10, CCL2/MCP-1, CCL3/MIP-1alpha and CCL20/MIP-3alpha” value in experiment [1] (DEX) is 50-90%. In addition, the “reduction of MSU-induced knee joint edema” value in experiment [2] (high dose i.p.: 2,4-D 100 mg/kg, CLC 1 mg/kg, DEX 0.5 mg/kg) came to 38.9%; in experiment [2] (low dose i.p.: 2,4-D 20 mg/kg, DEX 0.1 mg/kg) it was 16.8%. Further, in experiment [3], the “reduction of MSU-induced leukocyte recruitment” value is listed as 2.2 fold. Moreover, the “decrease of IL-1ß in knee joint tissue” value in the experiment with IL-1ß amounted to 1.9 fold. In the experiment with IL-6, the “decrease of IL-6 in knee joint tissue” value is listed as “no effect”. Moreover, the “decrease of IL-10 in knee joint tissue” value in the experiment with IL-10 was 1.5 fold. For the same molecule, in the experiment on TNF-alpha, the “decrease of TNF-alpha in knee joint tissue” value is 2.0 fold.
With `CO[C@H]1C[C@@H]2CC[C@@H](C)[C@@](O)(O2)C(=O)C(=O)N2CCCC[C@H]2C(=O)O[C@H]([C@H](C)C[C@@H]2CC[C@@H](O)[C@H](OC)C2)CC(=O)[C@H](C)/C=C(\C)[C@@H](O)[C@@H](OC)C(=O)[C@H](C)C[C@H](C)/C=C/C=C/C=C/1C` [Rapamycin, rapamycin, reference compound], the “inhibition of transcription of Tnf, Il1ß, Ccl2 and Ccl3” value in experiment [4] is recorded as not above 50 fold. Also, the inhibition at 20 µM in experiment [1] (Homo sapiens, THP-1, 20 μM, read-out: inhibition of release of IL-1ß, IL-10, TNF-alpha, CCL2/MCP-1, CCL3/MIP-1alpha and CCL20) is less than 50%.
